Active and inactive are the calls of the source. No cut-off for these calls is given here.
Tests used:
ASPC1 [1] = test: Induction of apoptosis in human ASPC1 cells at 10 uM incubated for 24 hrs in presence of 1 uM MRTX1133 by Annexin V-FITC/PI staining based flow cytometry analysis; assay type: functional, cell-based
Panc1005 [2] = test: Synergistic antiproliferative activity against human Panc1005 cells assessed as combination index for ED90 upto 20 uM incubated for 72 hrs in presence of MRTX1133; assay type: functional
Panc1005 [3] = test: Synergistic antiproliferative activity against human Panc1005 cells assessed as combination index upto 20 uM incubated for 72 hrs in presence of MRTX1133; assay type: functional
ASPC1 [4] = test: Sensitization of human ASPC1 cells to MRTX1133 assessed as upregulation of cleaved PARP level at 10 uM incubated for 24 hrs in presence of 1 uM MRTX1133 by Western blot analysis; assay type: functional, cell-based
[5] = target: T1, Protein cereblon/Histone-lysine N-methyltransferase EHMT2 (Homo sapiens, UniProt Q96KQ7+Q96SW2); test: PROTAC activity at CRBN/G9a in human PANC-1 cells assessed as induction of G9a degradation at 1 uM pretreated with MLN4924 for 2 hrs followed by compound addition and measured after 8 hrs by Western blot analysis; assay type: cell-based
T1 sequence (Q96SW2 whole entry partner, one chain of several): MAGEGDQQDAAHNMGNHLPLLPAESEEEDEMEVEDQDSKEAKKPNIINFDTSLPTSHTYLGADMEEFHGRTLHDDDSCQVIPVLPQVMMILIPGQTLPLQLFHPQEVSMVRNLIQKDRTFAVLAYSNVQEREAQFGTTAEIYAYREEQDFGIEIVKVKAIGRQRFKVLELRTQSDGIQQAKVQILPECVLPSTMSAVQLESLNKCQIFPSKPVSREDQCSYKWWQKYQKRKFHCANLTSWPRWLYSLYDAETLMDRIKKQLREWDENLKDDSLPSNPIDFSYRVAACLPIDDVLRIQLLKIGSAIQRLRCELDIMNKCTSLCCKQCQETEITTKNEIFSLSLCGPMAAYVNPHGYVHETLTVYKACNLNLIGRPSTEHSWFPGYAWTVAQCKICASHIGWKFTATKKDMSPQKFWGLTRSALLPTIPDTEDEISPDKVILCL

HPAF-II [6] = test: Antiproliferative activity against human HPAF-II cells assessed as inhibition of cell growth measured after 72 hrs by SRB assay; assay type: functional, cell-based
PANC-1 [7] = test: Effect on H3K79me3 level in human PANC-1 cells at 0.04 to 10 uM measured after 24 hrs by Western blot analysis; assay type: functional, cell-based; conditions: dose 0.04-10 µM
[8] = Cmax in male ICR mouse at 20 mg/kg, ip measured upto 24 hrs by LC-MS/MS analysis; assay type: ADME, organism-based; conditions: in vivo
PANC-1 [9] = test: Effect on H3K27me2 level in human PANC-1 cells at 0.04 to 10 uM measured after 24 hrs by Western blot analysis; assay type: functional, cell-based; conditions: dose 0.04-10 µM
[10] = target: T1, Protein cereblon/Histone-lysine N-methyltransferase EHMT2; test: PROTAC activity at CRBN/G9a in human PANC-1 cells assessed as induction of G9a degradation at 1 uM pretreated with thalidomide for 2 hrs followed by compound addition and measured after 8 hrs by Western blot analysis; assay type: cell-based
PANC-1 [11] = test: Upregulation of cleaved PARP level in human PANC-1 cells at 0.1 to 10 uM measured after 24 hrs by Western blot analysis; assay type: functional, cell-based; conditions: dose 0.1-10 µM
[12] = Bioavailability in male ICR mouse at 20 mg/kg, ip measured upto 24 hrs by LC-MS/MS analysis; assay type: ADME, organism-based; conditions: in vivo
[13] = target: T2, Histone-lysine N-methyltransferase EHMT2 (Homo sapiens) (UniProt Q96KQ7); test: Inhibition of N-terminal GST tagged human recombinant G9a (785 to 1210 residues) expressed in Escherichia coli using H3(1 to 21)K9me1 and SAM as substrates incubated for 1 hr by HTRF assay
T2 sequence (whole entry): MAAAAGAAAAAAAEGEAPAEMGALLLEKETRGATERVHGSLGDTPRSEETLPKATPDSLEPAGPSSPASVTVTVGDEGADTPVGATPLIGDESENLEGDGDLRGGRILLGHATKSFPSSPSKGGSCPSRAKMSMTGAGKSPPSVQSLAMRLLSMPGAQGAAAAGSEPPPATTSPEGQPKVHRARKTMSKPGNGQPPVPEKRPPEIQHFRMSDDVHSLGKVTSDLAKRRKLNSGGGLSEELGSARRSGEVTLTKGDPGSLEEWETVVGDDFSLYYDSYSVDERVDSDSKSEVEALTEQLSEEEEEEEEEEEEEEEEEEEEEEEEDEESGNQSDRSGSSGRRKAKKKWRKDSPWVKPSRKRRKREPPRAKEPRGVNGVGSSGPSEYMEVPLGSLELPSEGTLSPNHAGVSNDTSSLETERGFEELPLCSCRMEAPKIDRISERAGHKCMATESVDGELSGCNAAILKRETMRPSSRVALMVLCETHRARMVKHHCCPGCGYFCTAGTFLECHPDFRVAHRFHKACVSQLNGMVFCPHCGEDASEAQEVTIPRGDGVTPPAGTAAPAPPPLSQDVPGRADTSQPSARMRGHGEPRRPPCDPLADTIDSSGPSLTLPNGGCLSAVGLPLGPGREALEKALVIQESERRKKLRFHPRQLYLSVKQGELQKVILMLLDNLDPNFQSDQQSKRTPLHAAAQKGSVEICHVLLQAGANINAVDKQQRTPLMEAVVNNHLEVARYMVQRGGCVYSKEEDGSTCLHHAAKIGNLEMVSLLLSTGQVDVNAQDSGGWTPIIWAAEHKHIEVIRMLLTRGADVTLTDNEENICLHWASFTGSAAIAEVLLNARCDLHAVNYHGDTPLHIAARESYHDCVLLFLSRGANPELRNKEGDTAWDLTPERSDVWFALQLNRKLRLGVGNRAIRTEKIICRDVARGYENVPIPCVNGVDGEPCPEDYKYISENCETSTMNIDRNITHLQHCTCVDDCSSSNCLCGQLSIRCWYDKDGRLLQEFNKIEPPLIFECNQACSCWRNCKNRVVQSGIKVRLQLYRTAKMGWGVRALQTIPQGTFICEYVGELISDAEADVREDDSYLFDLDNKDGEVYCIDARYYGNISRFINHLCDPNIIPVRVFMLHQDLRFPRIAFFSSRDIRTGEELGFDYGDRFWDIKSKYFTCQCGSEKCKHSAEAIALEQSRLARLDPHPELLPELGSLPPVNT

PANC-1 [14] = test: Effect on H3K27me1 level in human PANC-1 cells at 0.04 to 10 uM measured after 24 hrs by Western blot analysis; assay type: functional, cell-based; conditions: dose 0.04-10 µM
PANC-1 [15] = test: Effect on CK1alpha level in human PANC-1 cells at 0.008 to 10 uM measured after 8 hrs by western blot analysis; assay type: functional, cell-based; conditions: dose 0.008-10 µM
HPAF-II [16] = test: Synergistic antiproliferative activity against human HPAF-II cells assessed as combination index for ED90 upto 20 uM incubated for 72 hrs in presence of MRTX1133; assay type: functional
KP-4 = test: Synergistic antiproliferative activity against human KP-4 cells assessed as combination index for ED90 upto 20 uM incubated for 72 hrs in presence of MRTX1133; assay type: functional
[17] = target: T1, Protein cereblon/Histone-lysine N-methyltransferase EHMT2; test: PROTAC activity at CRBN/G9a in human PANC-1 cells assessed as downregulation of G9a protein level at 1 uM measured after 8 hrs by quantitative proteomics analysis; assay type: cell-based
ASPC1 [18] = test: Synergistic antiproliferative activity against human ASPC1 cells assessed as combination index upto 20 uM incubated for 72 hrs in presence of MRTX1133; assay type: functional
Panc 04.03 = test: Antiproliferative activity against human Panc 04.03 cells assessed as inhibition of cell growth measured after 72 hrs by SRB assay; assay type: functional, cell-based
Panc 02.03 = test: Synergistic antiproliferative activity against human Panc 02.03 cells assessed as combination index upto 20 uM incubated for 72 hrs in presence of MRTX1133; assay type: functional
PANC-08-13 = test: Antiproliferative activity against human PANC-08-13 cells assessed as inhibition of cell growth measured after 72 hrs by SRB assay; assay type: functional, cell-based
ASPC1 [19] = test: Synergistic antiproliferative activity against human ASPC1 cells assessed as combination index for ED90 upto 20 uM incubated for 72 hrs in presence of MRTX1133; assay type: functional

Activity [5]: inactive
Cmax [8]: 2670 ng/mL
Activity [10]: inactive
bioavailability [12]: 40.6%
inhibition [13]: Active
Activity [17]: Active
Structure (SMILES): COc1cc2c(NC3CCN(CCCC(=O)NCCCCCCCCNc4cccc5c4C(=O)N(C4CCC(=O)NC4=O)C5=O)CC3)nc(C3CCCCC3)nc2cc1OCCCN1CCCC1 (stereo not drawn)
Activity (ASPC1 [1]): Active
CI (Panc1005 [2]): <0.4
CI (Panc1005 [3]): <0.8
Activity (ASPC1 [4]): Active
Activity (HPAF-II [6]): Active
Activity (PANC-1 [7]): inactive
Activity (PANC-1 [9]): inactive
Activity (PANC-1 [11]): Active
Activity (PANC-1 [14]): inactive
Activity (PANC-1 [15]): inactive
CI (HPAF-II [16]): <0.4
CI (KP-4): <0.4
CI (ASPC1 [18]): <0.8
Activity (Panc 04.03): Active
CI (Panc 02.03): <0.8
Activity (PANC-08-13): Active
CI (ASPC1 [19]): <0.4

Source: ChEMBL document CHEMBL5523762, “Discovery of Potent and Selective G9a Degraders for the Treatment of Pancreatic Cancer” (J Med Chem, 2024)
